In patent US11890292B2, “Compositions, methods, systems and/or kits for preventing and/or treating neoplasms” (Research Cancer Institute of America, priority 2017, dated 2024):

Legend:
glioma cells = settings: cited from earlier work
[1] = cited from earlier work
one or more cancers = settings: cyclophosphamide only
Description: One or more patients are identified who have one or more cancers selected from lung carcinoma, prostate cancer, gliaoblastoma multiform, hormone refractory prostate cancer, solid tumor malignancies such as colon carcinoma, non-small cell lung cancer (NSCLC), anaplastic astrocytoma, bladder carcinoma, sarcoma, ovarian carcinoma, rectal hemangiopericytoma, pancreatic carcinoma, advanced cancer, cancer of large bowel, stomach, pancreas, ovaries, melanoma pancreatic cancer, colon cancer, and bladder cancer.
The one or more patients are administered a formulation comprising cyclophosphamide only. […] On the day of the next administration and prior to the administration, as assessment of the outcome of treatment until that point is conducted and compared to all previous assessments.
Patients are then administered a combination of cyclophosphamide and quercetin and SPB. […] An assessment of the outcome of treatment is periodically made.

## O=c1c(O)c(-c2ccc(O)c(O)c2)oc2cc(O)cc(O)c12 [Quercetin, quercetin]
Glioma cells
  angiogenesis in glioma cells: suppression of angiogenesis
[1]
  water solubility: not water soluble

## O=P1(N(CCCl)CCCl)NCCCO1 (stereo not drawn) [cyclophosphamide]
One or more cancers
  response of the cancers following the initial response period: become resistant
